Source: paper PMC3578785, “Improved BM212 MmpL3 Inhibitor Analogue Shows Efficacy in Acute Murine Model of Tuberculosis Infection” (PLoS ONE, 2013)
Values after ≈ are worked out from the molar mass of the structure shown. Read-outs that look alike come from different tables or passages of the source.

Assays:
[1] = test system: M. tuberculosis H37Rv bacilli; conditions: cited from earlier work
[2] = molecular target: human serum albumin (HSA) (Homo sapiens, UniProt P02768); assay type: in vitro ADME
human serum albumin (HSA), sequence (P02768 25-609): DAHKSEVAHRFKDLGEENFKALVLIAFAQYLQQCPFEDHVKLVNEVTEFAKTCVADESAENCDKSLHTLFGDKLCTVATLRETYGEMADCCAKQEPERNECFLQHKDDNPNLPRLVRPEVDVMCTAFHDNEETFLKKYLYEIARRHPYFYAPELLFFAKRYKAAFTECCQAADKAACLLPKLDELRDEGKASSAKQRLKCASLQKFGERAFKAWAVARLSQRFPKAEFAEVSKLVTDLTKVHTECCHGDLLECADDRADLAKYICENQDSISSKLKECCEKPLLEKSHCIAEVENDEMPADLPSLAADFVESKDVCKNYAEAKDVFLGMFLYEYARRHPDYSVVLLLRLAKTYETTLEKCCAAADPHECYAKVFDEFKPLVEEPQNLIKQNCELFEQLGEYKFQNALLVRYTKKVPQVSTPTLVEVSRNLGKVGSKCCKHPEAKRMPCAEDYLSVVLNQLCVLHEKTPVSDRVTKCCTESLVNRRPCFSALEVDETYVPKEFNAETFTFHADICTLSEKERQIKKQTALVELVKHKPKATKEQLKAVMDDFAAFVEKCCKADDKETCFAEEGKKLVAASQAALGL
Experimental: Standard physical chemical property determination methods were used. Please see the Supporting Information for details.
Protocol S4. Determination of compounds binding to human serum albumin (HSA).
The determination of compounds binding to human serum albumin (HSA) was carried out by retention time measurements using immobilized HSA HPLC columns obtained from Chiral Technologies Ltd, France. The column dimensions were 50x3 mm. The mobile phase was 50 mM ammonium acetate buffer pH 7.4 and HPLC grade 2-propanol. HPLC Method: flow rate 1.8 ml/min applying 2.5 min 2-propanol gradient up to 30%. From 2.5 min to 4.5 min the 2-propanol concentration in the mobile phase was kept at 30%. From 4.5 min to 4.6 min, the 2-propanol concentration was decreased to 0% and kept like that until the end of the gradient run which was 6 min. A calibration set of compounds was first analyzed for which plasma protein binding data were available: Warfarin, Nizatidine, Bromazepam, Carbamazepine, Budesonide, Nicardipine, Indomethacine, Piroxicam, Naproxen. The calculation of the HSA binding data expressed as %HSA was carried out as described previously.

[3] = in vitro; assay type: in vitro ADME, mouse; conditions: for Cli mouse: 0.5 µM; for Cli mouse / half-life: pH 7.4; for half-life: read-out: t1/2 in mouse microsomes
Experimental: (§1) Protocol S6. Microsomal fraction stability experimental procedure.
(§2) Pooled mouse and human liver microsomes are purchased from Xenotech. Microsomes (final protein concentration 0.5 mg/mL, MgCl2 (final concentration = 5 mM) and test compound (final substrate concentration = 0.5 µM; final DMSO concentration = 0.5%) in 0.1M phosphate buffer pH 7.4 were pre-incubated at 37°C prior to the addition of NADPH (final concentration = 1 mM) to initiate the reaction. The final incubation volume was 600 µL. A control incubation was included for each compound tested where 0.1 M phosphate buffer pH 7.4 is added instead of NADPH (minus NADPH). One control compound was included with each species. All incubations were performed singularly for each test compound. Each compound was incubated for 30 minutes and samples (90 µL) of incubate were taken at 0, 5, 15, 20 and 30 min. The control (minus NADPH) was sampled at 30 min only. The reactions were stopped by the addition of sample to 200 µL Acetonitrile:Methanol 3:1 containing internal standard. The terminated samples were centrifuged at 2.500 rpm for 20 min at 4°C to precipitate the protein.
(§3) Quantitative Analysis: following protein precipitation, the samples were analyzed using specific […]
(§4) Data Analysis: from a plot of ln peak area ratio (compound peak area/internal standard peak area) against time, the gradient of the line was determined. Subsequently, half-life and intrinsic clearance were calculated using the equations below:
(§5) Elimination rate constant (k) = (- gradient)
(§6) Half life (t1/2) (min) = […]
(§7) Intrinsic Clearance (CLint) (mL/min/g protein) = […] where V=Incubation volume mL/g microsomal protein.

[4] = test system: Vero cells
[5] = test system: HepG2 cells
[6] = at 1 µM
[7] = in vitro; assay type: in vitro ADME, human; conditions: for half-life: read-out: t1/2 in human microsomes
Experimental: as §1, §2, §3, §4, §5, §6, §7

[8] = not given; remark: listed apart in the source
[9] = test system: M. tuberculosis H37Rv; test: microbe, parasite or virus in culture; assay type: cell-based; conditions: Mycobacterium tuberculosis, aerobic conditions
[10] = physchem
[11] = in vitro; conditions: African green monkey
[12] = in vitro; conditions: plasma, pH 7.4
[13] = test system: H37Rv; parameters: species or system mice; conditions: mouse, in vivo, po
[14] = in vivo; conditions: female, C57BL/6, mouse, po

| Compound | melting point [8] | HSA (%) binding ([2]; human, pH 7.4) | MIC [9] | Cli mouse [3] | half-life ([3]; mouse microsomes) | chromatographic logD ([10]; pH 2) | chromatographic logD ([10]; pH 7.4) | chromatographic logD ([10]; pH 10.5) | CC50 at 72 h [11] | fraction unbound at 1 µM [12] | Tox50, cytotoxicity in HepG2 cells ([5]; human, 48 h) | Cli human ([7]; human, 0.5 µM, pH 7.4) | half-life ([7]; pH 7.4, human microsomes) | further results |
| --- | --- | --- | --- | --- | --- | --- | --- | --- | --- | --- | --- | --- | --- | --- |
| AU1235 | – | – | – | – | – | – | – | – | – | – | – | – | – | activity against M. tuberculosis H37Rv bacilli in anaerobic models ([1]; ref [17]-[19]): neither AU1235 nor SQ109 gave detectable activity |
| CCCc1ccc(-n2c(-c3ccc(OC)cc3)cc(CN3CCOCC3)c2C)cc1 [Compound 24] | – | – | – | – | – | – | – | – | – | – | – | – | – | CHILogD pH 2 (pH 2): 1.46; CHILogD pH 7.4 (pH 7.4): 4.52; CHILogD pH 10.5 (pH 10.5): 4.97; HSA (%) binding [2]: 97.43%; t1/2 in mouse microsomes ([3]; mouse microsomes): >30 min; CC50 [4]: 31.2 µM; Tox50, cytotoxicity in HepG2 cells [5]: 2.1 µM; PPB (%) [6]: >99.9%; Cli human [7]: <0.5 mL/min/g; t1/2 in human microsomes ([7]; human microsomes): >30 min |
| CCCc1ccc(-c2cc(CN3CCOCC3)c(C)n2-c2ccc(OC)cc2)cc1 [Compound 20, 2-Methyl-3-[(morpholin-4-yl)-methyl]-5-[4-(propyl)phenyl]-1-[4-(methoxy)phenyl]-1H-pyrrole] | 107 °C | 97.17% | 0.3 µM (≈ 0.121 µg/mL) | 5.75 mL/min/g | 10.9 min | 1.4 | 4.46 | 4.93 | > 256 µM | < 0.001 | 14.3 µM | 0.61 mL/min/g | > 30 min | – |
| CO[C@H]1/C=C/O[C@@]2(C)Oc3c(C)c(O)c4c(O)c(c(/C=N/N5CCN(C)CC5)c(O)c4c3C2=O)NC(=O)/C(C)=C\C=C\[C@H](C)[C@H](O)[C@@H](C)[C@@H](O)[C@@H](C)[C@H](OC(C)=O)[C@@H]1C [Rifampin, reference compound] | – | – | – | – | – | – | – | – | 207 µM | – | – | – | – | ED99 (dose that reduces 2 logs bacterial burden in the lungs of mice; 95% confidence interval in parenthesis) [13]: 9.8 (9.0–11) mg/kg; AUC(0-inf) ([14]; 10.4 mg/kg): 102 µM·h |
| CCc1ccc(-c2cc(CN3CCOCC3)c(C)n2-c2ccc(OC)cc2)cc1 [Compound 19, 2-Methyl-3-[(morpholin-4-yl)-methyl]-5-[4-(ethyl)phenyl]-1-[4-(methoxy)phenyl]-1H-pyrrole] | 101 °C | 96.65% | 0.3 µM (≈ 0.117 µg/mL) | 9.45 mL/min/g | < 5 min | 1.21 | 3.99 | 4.5 | 30 µM | 0.003 | 5.7 µM | 1.71 mL/min/g | > 30 min | – |
| Cc1c(CN2CCOCC2)cc(-c2ccc(C(C)C)cc2)n1-c1ccc(F)cc1 [Compound 9, 2-Methyl-3-[(morpholin-4-yl)-methyl]-5-[4-(i-propyl)phenyl]-1-[4-(fluoro)phenyl]-1H-pyrrole] | 120 °C | 97.71% | 0.12 µM (≈ 0.0471 µg/mL) | – | > 30 min | 1.47 | 4.57 | 4.95 | 50.1 µM | < 0.001 | 15.3 µM | <0.5 mL/min/g | > 30 min | ED99 (dose that reduces 2 logs bacterial burden in the lungs of mice; 95% confidence interval in parenthesis) [13]: 49 (43–54) mg/kg; AUC(0-inf) ([14]; 50 mg/kg): 11.6 µM·h; Cmax ([14]; 50 mg/kg): 1620 nM; Tmax ([14]; 50 mg/kg): 60 min; half-life ([14]; 50 mg/kg): 60 min |
| COc1ccc(-c2cc(CN3CCOCC3)c(C)n2-c2ccc(C)cc2)cc1 [Compound 22, 2-Methyl-3-[(morpholin-4-yl)-methyl]-5-[4-(methoxy)phenyl]-1-[4-(methyl)phenyl]-1H-pyrrole] | 115 °C | 95.64% | 0.6 µM (≈ 0.226 µg/mL) | 12.62 mL/min/g | < 5 min | 1.02 | 3.57 | 4.11 | 50.1 µM | 0.008 | 11.3 µM | 1.14 mL/min/g | > 30 min | – |
| COc1ccc(-n2c(-c3ccc(C)cc3)cc(CN3CCOCC3)c2C)cc1 [Compound 18, 2-Methyl-3-[(morpholin-4-yl)-methyl]-5-[4-(methyl)phenyl]-1-[4-(methoxy)phenyl]-1H-pyrrole] | 128 °C | 95.87% | 2 µM (≈ 0.753 µg/mL) | 8.92 mL/min/g | < 5 min | 1.04 | 3.6 | 4.12 | 208 µM | 0.007 | 11.7 µM | 1.26 mL/min/g | 59.9 min | – |
| Cc1ccc(-c2cc(CN3CCOCC3)c(C)n2-c2ccc(Cl)cc2)cc1 [Compound 10, 2-Methyl-3-[(morpholin-4-yl)-methyl]-5-[4-(methyl)phenyl]-1-[4-(chloro)phenyl]-1H-pyrrole] | 130 °C | 97.69% | 0.6 µM (≈ 0.229 µg/mL) | 2.6 ± 0.1 mL/min/g | 25.7 min | 1.3 | 4.4 | 4.78 | 179 µM | 0.002 | 25 µM | <0.5 mL/min/g | > 30 min | – |
| CC(C)=CCC/C(C)=C/CNCCNC1C2CC3CC(C2)CC1C3 (stereo not shown) [SQ109] | – | – | – | – | – | – | – | – | – | – | – | – | – | activity against M. tuberculosis H37Rv bacilli in anaerobic models [1]: neither AU1235 nor SQ109 gave detectable activity |
| CCc1ccc(-c2cc(CN3CCOCC3)c(C)n2-c2ccc(F)cc2)cc1 [Compound 8, 2-Methyl-3-[(morpholin-4-yl)-methyl]-5-[4-(ethyl)phenyl]-1-[4-(fluoro)phenyl]-1H-pyrrole] | 107 °C | 97.14% | 0.2 µM (≈ 0.0757 µg/mL) | 5.64 mL/min/g | 12.5 min | 1.26 | 4.21 | 4.64 | 18.9 µM | 0.006 | 19.5 µM | 1.09 mL/min/g | > 30 min | – |
| CCc1ccc(-n2c(-c3ccc(OC)cc3)cc(CN3CCOCC3)c2C)cc1 [Compound 23, 2-Methyl-3-[(morpholin-4-yl)-methyl]-5-[4-(methoxy)phenyl]-1-[4-(ethyl)phenyl]-1H-pyrrole] | 72 °C | 96.79% | 0.3 µM (≈ 0.117 µg/mL) | 7.8 ± 0.5 mL/min/g | < 5 min | 1.24 | 4.05 | 4.52 | 16 µM | 0.002 | 14.7 µM | <0.5 mL/min/g | > 30 min | – |
| Cc1ccc(-n2c(-c3ccc(Cl)cc3)cc(CN3CCOCC3)c2C)cc1 [Compound 14, 2-Methyl-3-[(morpholin-4-yl)-methyl]-5-[4-(chloro)phenyl]-1-[4-(methyl)phenyl]-1H-pyrrole] | 111 °C | 97.62% | 1.3 µM (≈ 0.495 µg/mL) | 7.41 mL/min/g | 9.69 min | 1.28 | 4.53 | 4.94 | 9.31 µM | < 0.001 | 26.0 µM | 0.57 mL/min/g | > 30 min | – |
